From patent US20170246166A1, “1,2-BENZOTHIAZOLE COMPOUNDS FOR THE TREATMENT OF KIDNEY DISORDERS” (priority 2014, published 2017) come the findings set out here.

A word on the IC50: it is the concentration that gives 50% inhibition.

Structures are written as SMILES.

Assay [1] addresses T1, human PKCε (Homo sapiens, UniProt Q02156).
T1 sequence (Q02156 1-737): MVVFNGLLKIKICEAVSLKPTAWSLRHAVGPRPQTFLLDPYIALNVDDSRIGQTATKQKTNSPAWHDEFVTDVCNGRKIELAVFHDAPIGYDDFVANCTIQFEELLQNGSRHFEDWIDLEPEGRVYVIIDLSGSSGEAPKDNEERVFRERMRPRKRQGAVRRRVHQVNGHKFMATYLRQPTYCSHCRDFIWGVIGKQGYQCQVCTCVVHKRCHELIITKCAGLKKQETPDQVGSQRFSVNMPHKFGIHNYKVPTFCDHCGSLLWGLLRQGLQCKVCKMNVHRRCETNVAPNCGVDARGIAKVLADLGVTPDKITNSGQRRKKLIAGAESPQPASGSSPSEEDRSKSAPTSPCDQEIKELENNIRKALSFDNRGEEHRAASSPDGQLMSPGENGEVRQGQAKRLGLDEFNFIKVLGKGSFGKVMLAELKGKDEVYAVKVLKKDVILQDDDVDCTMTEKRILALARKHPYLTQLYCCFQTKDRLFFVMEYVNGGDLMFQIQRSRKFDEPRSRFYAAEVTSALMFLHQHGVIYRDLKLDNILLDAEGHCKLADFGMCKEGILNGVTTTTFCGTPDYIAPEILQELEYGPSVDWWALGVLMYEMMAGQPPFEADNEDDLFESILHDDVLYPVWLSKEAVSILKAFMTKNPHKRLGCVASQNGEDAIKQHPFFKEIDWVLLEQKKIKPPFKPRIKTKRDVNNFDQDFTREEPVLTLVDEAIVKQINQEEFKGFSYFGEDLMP
Briefly: PKC isoforms based HTRF KinEASE-STK assay, PKCε. The assay is classed as biochemical. Particulars: 25 μM ATP in substrate mix, 30 min. From the text:
(§1) The purpose of this assay is to evaluate the inhibitory activity of compounds on various PKC isoforms. It has been reported that perturbations in vascular cell homeostasis caused by different PKC isoforms (PKC-α, β1/2, and PKC-δ) are linked to the development of pathologies affecting large vessel (atherosclerosis, cardiomyopathy) and small vessel (retinopathy, nephropathy, and neuropathy) complications. Geraldes, P. and King, G. L., “Activation of Protein Kinase C Isoforms and Its Impact on Diabetic Complications”, Cir.
(§2) Effects of a test compound on the kinase activity of PKCα, β2, δ, ε, ι, and ζ, are determined using a HTRF KINEASE™-STK assay kit (Cisbio) in accordance with the protocol provided by the vendor. It is a general method for measuring Serine/Threonine kinase activities using kinase substrates and a universal detection system. In the current protocol, biotinilated STK1provided in the assay kit is used as the substrate that can be phosphorylated by any PKC isoform. The HTRF KINEASE™-STK assay kit format involves the two steps (Enzymatic step and Detection step) described below. First, the kinase phosphorylates the substrate in the presence of ATP. Second, the detection reagents provided in the assay kit recognize the phosphorylated substrate.
(In general: Time-resolved FRET reads energy transfer from a long-lived donor to a nearby acceptor.)

Assay [2] concerns the target human PKCα (Homo sapiens, UniProt P17252). Briefly: PKC isoforms based HTRF KinEASE-STK assay, PKCα. The class given is biochemical. The conditions noted are these: 50 μM ATP in substrate mix, 30 min.
Excerpt: as §1, §2

Assay [3] deals with PKC. Briefly: Cell-based assay of PKC inhibition (PKC substrate phosphorylation in THP-1 cells). Particulars: human THP-1 cells, 1.5 h compound, then 20 nM PMA for 30 min; read-out: absolute IC50, PKC substrate phosphorylation. The protocol: The purpose of this assay is to test the inhibitory effects of a test compound on PKC in a cell-based system by measuring the level of PKC substrate phosphorylation.
Staurosporin may be used as a positive control. It is prepared in DMSO to make up a […] solution and then serially diluted in plain RPMI 1640 culture medium (10 μM-0.0005 μM) to obtain a ten-point dilution curve. Test compounds are prepared in the same manner.
THP-1 cells (human macrophage cell line) are obtained from ATCC (ATCC TIB-202 lot 4028542). The cells are cultured in 96-well plates coated with poly-d-lysine (Becton Dickinson) with seeding density of 4000 cells/well in RPMI 1640 culture medium (Gibco) with 1% fetal bovine serum (Gibco). […]
After the incubation, the cells are first fixed in the Prefer fixative (ANATECH LTD) for 30 min at room temperature. […] Plates are scanned with an ACUMEN EXPLORER™ Laser-scanning fluorescence microplate cytometer (TTP LABTECH LTD), with 488 nm laser excitation to detect emission fluorescence at 655 nm-705 nm (emission of DNA bound propidium iodide) for cell counting/well, and emission of 505 nm-530 nm fluorescence of antibody binding to phosphorylated PKC substrates in cells. The main assay output is a ratio of total fluorescence of phosphorylated PKC substrates to total cell number (ratio=total intensity/total cell number). […]

In assay [4] the target is human PKCδ (Homo sapiens, UniProt Q05655). Briefly: PKC isoforms based HTRF KinEASE-STK assay, PKCδ. The class given is biochemical. Particulars: 62.5 μM ATP in substrate mix, 40 min.
Excerpt: as §1, §2

Sequence of human PKCδ (Q05655 whole entry, canonical isoform): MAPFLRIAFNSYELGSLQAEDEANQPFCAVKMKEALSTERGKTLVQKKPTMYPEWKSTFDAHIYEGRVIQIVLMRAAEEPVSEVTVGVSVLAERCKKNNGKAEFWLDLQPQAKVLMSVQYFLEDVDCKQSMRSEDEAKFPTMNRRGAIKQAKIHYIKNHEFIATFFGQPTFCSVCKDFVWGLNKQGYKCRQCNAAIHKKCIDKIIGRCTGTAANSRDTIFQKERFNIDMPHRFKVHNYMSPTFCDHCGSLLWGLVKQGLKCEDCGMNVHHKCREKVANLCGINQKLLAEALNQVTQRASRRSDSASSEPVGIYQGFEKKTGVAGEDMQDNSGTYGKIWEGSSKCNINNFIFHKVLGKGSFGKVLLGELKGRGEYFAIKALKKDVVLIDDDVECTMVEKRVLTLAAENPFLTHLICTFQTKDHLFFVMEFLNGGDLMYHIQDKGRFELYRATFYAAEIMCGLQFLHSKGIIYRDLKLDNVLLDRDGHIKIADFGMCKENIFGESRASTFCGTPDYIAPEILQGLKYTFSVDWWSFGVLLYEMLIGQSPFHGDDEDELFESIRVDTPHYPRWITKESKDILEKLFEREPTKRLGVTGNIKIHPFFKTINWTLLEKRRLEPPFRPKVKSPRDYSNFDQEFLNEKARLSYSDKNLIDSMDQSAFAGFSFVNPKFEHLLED

For `C[C@@H]1CN(C(=O)c2cc(-c3c(F)cc(O)cc3F)cc3cnsc23)C[C@H](C)N1.Cl` [Example 2, 4-(7-{[(3R,5 S)-3,5-DIMETHYLPIPERAZIN-1-YL]CARBONYL}-1,2-BENZOTHIAZOL-5-YL)-3,5-DIFLUOROPHENOL HYDROCHLORIDE], the IC50 in assay [1] was approximately 21.9 nM; in assay [2] it was approximately 16.6 nM; in assay [3] it was approximately 800 nM; in assay [4] it was approximately 68 nM.
